Format in all cases: biochemical
The target of one assay is human Cat B (Homo sapiens (Human), UniProt P07858). Description: Cathepsin enzyme inhibition assay (fluorogenic peptide substrate), Cat B. As to conditions: enzyme 1 nM, substrate Z-Val-Val-Arg-AMC 20 μM, pH 6.5. The method, then:
(§1) Enzyme activity is measured by observing the increase in fluorescence intensity caused by cleavage of a peptide substrate containing a fluorophore whose emission is quenched in the intact peptide.
(§2) Assay buffer: 100 mM potassium phosphate pH 6.5, EDTA-Na 5 mM, Triton X-100 0.001%, DTT 5 mM.
(§3) Enzymes (all at 1 nM): human and mouse Cathepsin S, Cat K, Cat B, Cat L. Substrate (20 μM): Z-Val-Val-Arg-AMC, except for Cat K which uses Z-Leu-Arg-AMC (both from Bachem).
(§4) Excitation 360 nm, Emission 465 nm.
(§5) Enzyme is added to the substance dilutions in 96-well microtitre plates and the reaction is started with substrate. […] IC50 are calculated by standard methods. Inhibition of human Cat S, mouse Cat S, human Cat K, mouse Cat K, human Cat B, mouse Cat B, human Cat L and mouse Cat L have been measured separately.

The target of the next assay is human Cathepsin S (Homo sapiens (Human), UniProt P25774). Description: Cathepsin enzyme inhibition assay (fluorogenic peptide substrate), Cat S. Conditions: enzyme 1 nM, substrate Z-Val-Val-Arg-AMC 20 μM, pH 6.5. On the procedure:
as §1, §2, §3, §4, §5

In the next assay the target is human Cat L (Homo sapiens (Human), UniProt P07711). Description: Cathepsin enzyme inhibition assay (fluorogenic peptide substrate), Cat L. Conditions: enzyme 1 nM, substrate Z-Val-Val-Arg-AMC 20 μM, pH 6.5. On the procedure: as §1, §2, §3, §4, §5
The next assay deals with human Cat K (Homo sapiens (Human), UniProt P43235). The experiment in a line: Cathepsin enzyme inhibition assay (fluorogenic peptide substrate), Cat K. As to conditions: enzyme 1 nM, substrate Z-Leu-Arg-AMC 20 μM, pH 6.5. On the procedure: as §1, §2, §3, §4, §5
human Cat K, sequence (P43235 115-329): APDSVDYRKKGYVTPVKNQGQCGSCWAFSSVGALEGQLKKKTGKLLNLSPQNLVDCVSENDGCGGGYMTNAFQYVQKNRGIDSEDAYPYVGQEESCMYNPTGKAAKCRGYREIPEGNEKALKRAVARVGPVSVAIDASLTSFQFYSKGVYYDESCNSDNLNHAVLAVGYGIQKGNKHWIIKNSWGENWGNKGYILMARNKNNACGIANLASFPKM

human Cat L, sequence (P07711 114-333): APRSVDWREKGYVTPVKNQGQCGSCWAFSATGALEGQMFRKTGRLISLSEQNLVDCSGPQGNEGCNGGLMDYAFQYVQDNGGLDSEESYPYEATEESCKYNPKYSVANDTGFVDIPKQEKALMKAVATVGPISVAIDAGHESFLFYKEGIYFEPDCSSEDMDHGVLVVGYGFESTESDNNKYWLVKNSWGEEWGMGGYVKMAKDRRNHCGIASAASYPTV
human Cathepsin S, sequence (P25774 115-331): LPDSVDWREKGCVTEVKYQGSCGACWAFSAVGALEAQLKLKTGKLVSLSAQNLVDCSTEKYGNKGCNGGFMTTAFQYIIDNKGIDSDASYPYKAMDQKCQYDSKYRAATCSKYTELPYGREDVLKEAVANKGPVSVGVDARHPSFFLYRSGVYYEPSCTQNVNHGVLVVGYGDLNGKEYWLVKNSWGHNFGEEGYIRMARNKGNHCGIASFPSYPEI

In the case of `O=C(NC1CC1)C(=O)[C@H](CC1CCCCC1)NC(=O)[C@@H]1C[C@@H](S(=O)(=O)c2ccccc2Cl)CN1C(=O)C1(c2ccc(Cl)cc2)CC1` [Example 30, (2S,4R)-1-(1-(4-chlorophenyl)cyclopropanecarbonyl)-4-(2-chlorophenylsulfonyl)-N—((S)-1-cyclohexyl-4-(cyclopropylamino)-3,4-dioxobutan-2-yl)pyrrolidine-2-carboxamide], the half-maximal inhibitory concentration (IC50) against human Cat B came out at 210 nM; against human Cathepsin S, 1.42 nM; against human Cat L it was 23.4 nM; against human Cat K it was 137 nM.
The like results for `CC[C@H](NC(=O)[C@@H]1C[C@@H](S(=O)(=O)c2ccccc2Cl)CN1C(=O)C1(c2ncc(Br)cc2F)CC1)C(=O)C(=O)NC1CC1` [Example 23, (2S,4R)-1-(1-(5-bromo-3-fluoropyridin-2-yl)cyclopropanecarbonyl)-4-(2-chlorophenylsulfonyl)-N—((S)-1-(cyclopropylamino)-1,2-dioxopentan-3-yl)pyrrolidine-2-carboxamide] were, in that order, 1230 nM, 2.98 nM, 42.1 nM and 299 nM.
The corresponding values for `CCC[C@H](NC(=O)[C@@H]1C[C@@H](S(=O)(=O)c2ccccc2Cl)CN1C(=O)C1(c2ccc(Cl)cc2)CC1)C(=O)C(=O)N(C)C1CC1` [Example 47, (2S,4R)-1-(1-(4-chlorophenyl)cyclopropanecarbonyl)-4-(2-chlorophenylsulfonyl)-N—((S)-1-(cyclopropyl(methyl)amino)-1,2-dioxohexan-3-yl)pyrrolidine-2-carboxamide] are 1540 nM, 22.3 nM, 283 nM and 998 nM.
In the case of `CC[C@H](NC(=O)[C@@H]1C[C@@H](S(=O)(=O)c2ccc(C)cc2C)CN1C(=O)OC(C)(C)C)C(=O)C(=O)NC1CC1` [Example 1, (2S,4R)-tert-butyl 2-((S)-1-(cyclopropylamino)-1,2-dioxopentan-3-ylcarbamoyl)-4-(2,4-dimethylphenylsulfonyl)pyrrolidine-1-carboxylate], the IC50 was 11100 nM against human Cat B, 0.829 nM at human Cathepsin S, 1910 nM against human Cat L and 7900 nM at human Cat K.
Turning to `CCC[C@H](NC(=O)[C@@H]1C[C@@H](S(=O)(=O)c2ccc(O[C@@H](C)C(F)(F)F)cc2Cl)CN1C(=O)C1(c2ccc(Cl)cc2)CC1)C(=O)C(=O)NC1CC1` [Example 46, (2S,4R)-4-(2-chloro-4-((S)-1,1,1-trifluoropropan-2-yloxy)phenylsulfonyl)-1-(1-(4-chlorophenyl)cyclopropanecarbonyl)-N—((S)-1-(cyclopropylamino)-1,2-dioxohexan-3-yl)pyrrolidine-2-carboxamide], the IC50 came out at 224 nM against human Cat B, 5.98 nM against human Cathepsin S, 67.1 nM against human Cat L and 251 nM at human Cat K.
For `CC[C@H](NC(=O)[C@@H]1C[C@@H](S(=O)(=O)c2ccccc2C(F)(F)F)CN1C(=O)C1(C(F)(F)F)CC1)C(=O)C(=O)NC1CC1` [Example 7, (2S,4R)—N—((S)-1-(cyclopropylamino)-1,2-dioxopentan-3-yl)-1-(1-(trifluoromethyl)cyclopropanecarbonyl)-4-(2-(trifluoromethyl)phenylsulfonyl)pyrrolidine-2-carboxamide], the IC50 was determined as 1850 nM against human Cat B, 3.78 nM at human Cathepsin S, 3040 nM at human Cat L and 11300 nM on human Cat K.
The corresponding values for `CCC[C@H](NC(=O)[C@@H]1C[C@@H](S(=O)(=O)c2ccccc2Cl)CN1C(=O)C1(c2ncc(Cl)cc2F)CC1)C(=O)C(=O)NCc1ccccc1` [Example 62, (2S,4R)—N—((S)-1-(benzylamino)-1,2-dioxohexan-3-yl)-1-(1-(5-chloro-3-fluoropyridin-2-yl)cyclopropanecarbonyl)-4-(2-chlorophenylsulfonyl)pyrrolidine-2-carboxamide] are 120 nM, 2.35 nM, 6 nM and 41.2 nM.
Consider `CCC[C@H](NC(=O)[C@@H]1C[C@@H](S(=O)(=O)c2ccccc2Cl)CN1C(=O)C1(c2ccc(Cl)cc2)CC1)C(=O)C(=O)NC(C)C` [Example 41, (2S,4R)-1-(1-(4-chlorophenyl)cyclopropanecarbonyl)-4-(2-chlorophenylsulfonyl)-N—((S)-1-(isopropylamino)-1,2-dioxohexan-3-yl)pyrrolidine-2-carboxamide], for which the IC50 at human Cat B came out at 187 nM; against human Cathepsin S, 0.568 nM; on human Cat L, 11.7 nM; against human Cat K it was 152 nM.
The corresponding values for `CC[C@H](NC(=O)[C@@H]1C[C@@H](S(=O)(=O)c2ccccc2Cl)CN1C(=O)C1(c2ccc(Cl)cc2)CC1)C(=O)C(=O)NCc1ccccc1` [Example 33, (2S,4R)—N—((S)-1-(benzylamino)-1,2-dioxopentan-3-yl)-1-(1-(4-chlorophenyl)cyclopropanecarbonyl)-4-(2-chlorophenylsulfonyl)pyrrolidine-2-carboxamide] are 77 nM, 1.11 nM, 13.6 nM and 52.9 nM.
As to `CC[C@H](NC(=O)[C@@H]1C[C@@H](S(=O)(=O)c2ccccc2C(F)(F)F)CN1c1ccccc1[N+](=O)[O-])C(=O)C(=O)NC1CC1` [Example 3, (2S,4R)—N—((S)-1-(cyclopropylamino)-1,2-dioxopentan-3-yl)-1-(2-nitrophenyl)-4-(2-(trifluoromethyl)phenylsulfonyl)pyrrolidine-2-carboxamide], the IC50 against human Cat B turned out to be 3180 nM; against human Cathepsin S it was 1 nM; at human Cat L it was 1550 nM; against human Cat K it was 7430 nM.
In the case of `CCC[C@H](NC(=O)[C@@H]1C[C@@H](S(=O)(=O)c2ccccc2Cl)CN1C(=O)C1(c2ccc(Br)cc2)CC1)C(=O)C(=O)NC1CC1` [Example 16, (2S,4R)-1-(1-(4-bromophenyl)cyclopropanecarbonyl)-4-(2-chlorophenylsulfonyl)-N—((S)-1-(cyclopropylamino)-1,2-dioxohexan-3-yl)pyrrolidine-2-carboxamide], the IC50 was found to be 45.4 nM against human Cat B, 0.442 nM against human Cathepsin S, 5.9 nM on human Cat L and 20.2 nM at human Cat K.
The corresponding values for `CC[C@H](NC(=O)[C@@H]1C[C@@H](S(=O)(=O)c2ccccc2C(F)(F)F)CN1C(=O)C1(c2ccc(Cl)cc2)CC1)C(=O)C(=O)NC1CC1` [Example 21, (2S,4R)-1-(1-(4-chlorophenyl)cyclopropanecarbonyl)-N—((S)-1-(cyclopropylamino)-1,2-dioxopentan-3-yl)-4-(2-(trifluoromethyl)phenylsulfonyl)pyrrolidine-2-carboxamide] are 165 nM, 0.668 nM, 28.7 nM and 406 nM.
The like results for `CCCCNC(=O)C(=O)[C@H](CCC)NC(=O)[C@@H]1C[C@@H](S(=O)(=O)c2ccccc2Cl)CN1C(=O)C1(c2ncc(Cl)cc2F)CC1` [Example 61, (2S,4R)—N—((S)-1-(butylamino)-1,2-dioxohexan-3-yl)-1-(1-(5-chloro-3-fluoropyridin-2-yl)cyclopropanecarbonyl)-4-(2-chlorophenylsulfonyl)pyrrolidine-2-carboxamide] were, in that order, 172 nM, 2.93 nM, 6.2 nM and 106 nM.
The like results for `CC[C@H](NC(=O)[C@@H]1C[C@@H](S(=O)(=O)c2ccc(O[C@@H](C)C(F)(F)F)cc2Cl)CN1C(=O)C1(c2ccc(Cl)cc2)CC1)C(=O)C(=O)NC1CC1` [Example 45, (2S,4R)-4-(2-chloro-4-((S)-1,1,1-trifluoropropan-2-yloxy)phenylsulfonyl)-1-(1-(4-chlorophenyl)cyclopropanecarbonyl)-N—((S)-1-(cyclopropylamino)-1,2-dioxopentan-3-yl)pyrrolidine-2-carboxamide] were, in that order, 335 nM, 5.43 nM, 74.9 nM and 212 nM.
Turning to `CC[C@H](NC(=O)[C@@H]1C[C@@H](S(=O)(=O)c2ccc(OCC(F)(F)F)cc2C(F)(F)F)CN1C(=O)C1(c2ccc(Cl)cc2)CC1)C(=O)C(=O)NC1CC1` [Example 11], the IC50 came to 291 nM on human Cat B, 1.38 nM against human Cathepsin S, 63.2 nM against human Cat L and 390 nM against human Cat K.
In the case of `CC[C@H](NC(=O)[C@@H]1C[C@@H](S(=O)(=O)c2ccccc2C(F)(F)F)CN1C(=O)C1(c2ncc(Cl)cc2F)CC1)C(=O)C(=O)NC1CC1` [Example 19, (2S,4R)-1-(1-(5-chloro-3-fluoropyridin-2-yl)cyclopropanecarbonyl)-N—((S)-1-(cyclopropylamino)-1,2-dioxopentan-3-yl)-4-(2-(trifluoromethyl)phenylsulfonyl)pyrrolidine-2-carboxamide], the IC50 was 424 nM against human Cat B, 0.593 nM against human Cathepsin S, 32.4 nM at human Cat L and 758 nM against human Cat K.

The values are drawn from US8729061B2, “Pyrrolidine derivatives” (Hoffmann-La Roche Inc., priority 2011, dated 2014).
